Target: KRas (Homo sapiens, UniProt P01116, G12C)
Test: KRas degradation in NCI-H2030 cells by Western blot, normalized to GAPDH (data of Table 14)
Format: cell-based
Design: host or cells: NCI-H2030
Details: for Dmax: NCI-H2030
In short: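 KRas/GAPDH band ratio vs DMSO lane gives % degradation; values under 25% were estimated visually, the rest quantitated. Cells are G12C homozygous, serum-free for 24 h, then dosed at 0.3/1/3 μM (0.1% DMSO). VHL-based compounds 24 h, others 72 h.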

Q: What does the source list for C=CC(=O)N1CCN(c2nc(O[C@H](C)CN3CCC(OCCOCCOc4ccc5c(c4)CN(C4CCC(=O)NC4=O)C5=O)CC3)nc3c2CCN(c2cc(O)cc4ccccc24)C3)CC1 (stereo partly drawn) [compound 422, 3-(5-(2-(2-((1-((R)-2-((4-(4-acryloylpiperazin-1-yl)-7-(3-hydroxynaphthalen-1-yl)-5,6,7 ,8-tetrahydropyrido[3,4-d]pyrimidin-2-yl)oxy)propyl)piperidin-4-yl)oxy)ethoxy)ethoxy)-1-oxoisoindolin-2-yl)piperidine-2,6-dione]?
A: Percent Degradation at Indicated Concentration (μM) (H2030 cells, 0.3 μM): C (Percent Degradation: C ≤ 35); Percent Degradation at Indicated Concentration (μM) (H2030 cells, 1 μM): C (Percent Degradation: C ≤ 35); Percent Degradation at Indicated Concentration (μM) (H2030 cells, 3 μM): C (Percent Degradation: C ≤ 35)

Q: What does the source list for O=C1CCC(N2C(=O)c3ccc(OCCOCC/C=C/C(=O)N4CCN(c5ncnc6c(F)c(-c7cc(O)cc8ccccc78)c(Cl)cc56)CC4)cc3C2=O)C(=O)N1 (stereo not shown) [compound 168, (E)-5-(2-((5-(4-(6-chloro-8-fluoro-7-(3-hydroxynaphthalen-1-yl)quinazolin-4-yl)piperazin-1-yl)-5-oxopent-3-en-1-yl)oxy)ethoxy)-2-(2,6-dioxopiperidin-3-yl)isoindoline-1,3-dione]?
A: Percent Degradation at Indicated Concentration (μM) (H2030, 0.3 μM): C (Percent Degradation: C ≤ 35); Percent Degradation at Indicated Concentration (μM) (H2030, 1 μM): C (Percent Degradation: C ≤ 35); Percent Degradation at Indicated Concentration (μM) (H2030, 3 μM): C (Percent Degradation: C ≤ 35); Dmax: ≤ 35%

Q: With C=CC(=O)N1CCN(c2nc(NCCC(=O)N(C)CCOCCOCCOCCOc3ccc4c(c3)C(=O)N(C3CCC(=O)NC3=O)C4=O)nc3c(F)c(-c4c(O)cccc4F)c(Cl)cc23)CC1 [compound 73, 3-(((S)-4-(4-acryloylpiperazin-1-yl)-6-chloro-8-fluoro-7-(2-fluoro-6-hydroxyphenyl)quinazolin-2-yl)amino)-N-(2-(2-(2-(2-((2-(2,6-dioxopiperidin-3-yl)-1,3-dioxoisoindolin-5-yl)oxy)ethoxy)ethoxy)ethoxy)ethyl)-N-methylpropanamide] as the molecule, how does the “Percent Degradation at Indicated Concentration (μM)” value (“Percent Degradation” for short) (H2030, 0.3 μM) read?
A: C (Percent Degradation: C ≤ 35)

Q: What about the “Percent Degradation” value (H2030, 1 μM) of the same molecule?
A: C (Percent Degradation: C ≤ 35)

Q: What about the “Percent Degradation” value (H2030, 3 μM) of the same molecule?
A: C (Percent Degradation: C ≤ 35)

Q: And the Dmax?
A: ≤ 35%

Q: What does the source list for CC(=O)N1CCN(c2nc(NCCC(=O)N(C)CCOCCOCC(=O)N[C@H](C(=O)N3C[C@H](O)C[C@H]3C(=O)N[C@@H](C)c3ccc(-c4scnc4C)cc3)C(C)(C)C)nc3c(F)c(-c4cc(O)cc5ccccc45)c(Cl)cc23)CC1 [compound 201, (2S,4R)-1-((2S)-15-((4-(4-acetylpiperazin-1-yl)-6-chloro-8-fluoro-7-(3-hydroxynaphthalen-1-yl)quinazolin-2-yl)amino)-2-(tert-butyl)-12-methyl-4,13-dioxo-6,9-dioxa-3,12-diazapentadecanoyl)-4-hydroxy-N-((S)-1-(4-(4-methylthiazol-5-yl)phenyl)ethyl)pyrrolidine-2-carboxamide]?
A: Percent Degradation at Indicated Concentration (μM) (H2030, 0.3 μM): C (Percent Degradation: C ≤ 35); Percent Degradation at Indicated Concentration (μM) (H2030, 1 μM): C (Percent Degradation: C ≤ 35); Percent Degradation at Indicated Concentration (μM) (H2030, 3 μM): C (Percent Degradation: C ≤ 35); Dmax: ≤ 35%

Q: What does the source list for C=CC(=O)N1CCN(c2nc(NCCC(=O)N(C)CCOCCOCCOCCNC(=O)c3ccc(NC(=O)[C@@H]4N[C@@H](CC(C)(C)C)[C@](C#N)(c5ccc(Cl)cc5F)[C@H]4c4cccc(Cl)c4F)c(OC)c3)nc3c(F)c(-c4c(O)cccc4F)c(Cl)cc23)CC1 (atropisomer, axis not shown) [compound 311, (2R,3S,4R,5S)-N-(4-((15-((4-(4-acryloylpiperazin-1-yl)-6-chloro-8-fluoro-7-((S)-2-fluoro-6-hydroxyphenyl)quinazolin-2-yl)amino)-12-methyl-13-oxo-3,6,9-trioxa-12-azapentadecyl)carbamoyl)-2-methoxyphenyl)-3-(3-chloro-2-fluorophenyl)-4-(4-chloro-2-fluorophenyl)-4-cyano-5-neopentylpyrrolidine-2-carboxamide]?
A: Percent Degradation at Indicated Concentration (μM) (H2030, 0.3 μM): C (Percent Degradation: C ≤ 35); Percent Degradation at Indicated Concentration (μM) (H2030, 1 μM): C (Percent Degradation: C ≤ 35); Percent Degradation at Indicated Concentration (μM) (H2030, 3 μM): C (Percent Degradation: C ≤ 35); Dmax: ≤ 35%

— US12552783B2, “Modulators of proteolysis and associated methods of use” (Arvinas Operations, Inc., priority 2018, dated 2026)
